Format in all cases: biochemical
Assay [1] has as its target T1, PDE4B: The catalytic domain of human PDE4B from S152-S528 (Homo sapiens, UniProt Q07343).
T1 construct: His6 (N); thrombin cleavage site (N); made in house; host or cells: E. coli
Nature of the assay: PDE4 IC50 determination by Scintillation Proximity Assay, PDE4B. In short, it runs like this:
(§1)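 Enzyme was added to compound and [^3H]cAMP, then incubated 30 min at 30° (PDE4B 80 ng/ml; PDE4D 4 ng/ml). Product [^3H]AMP bound to SPA beads and was counted. IC50 was fitted by non-linear regression against DMSO and roflumilast controls.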

Assay [2] has as its target T2, full-length human PDE4B2 isozyme (Homo sapiens, UniProt Q07343).
T2 construct: The full-length human PDE4B2 isozyme; His6 (N); TEV cleavage site (N); made in house; host or cells: baculovirus infected insect cells (unpurified lysate)
Nature of the assay: PDE4 IC50 determination by Scintillation Proximity Assay, PDE4B2. The procedure:
(§2) IC50s were determined by Scintillation Proximity Assay (SPA). The principle of the assay is based on the fact that cAMP, the PDE4 substrate, binds weakly to Yittrium Silicate SPA beads, whereas AMP, the product of PDE4 hydrolysis binds strongly. Thus, the extent of PDE4 hydrolysis of a sample of [^3H]cAMP can be measured because only the
(§3) [^3H]AMP produced by PDE4 hydrolysis will bind to the SPA beads and produce a scintillation signal.
(§4) PDE4 enzymes used for IC50 assays were:
PDE4B2: The full-length human PDE4B2 isozyme with an N-terminal His6 tag (SEQ ID NO: 18) and TEV cleavage site expressed in baculovirus infected insect cells. The enzyme was not purified from the cell lysates, so enzyme concentrations were not determined. Enzyme was stored in 50% glycerol at −20°.
(§5) Compounds tested (see Tables 3B, 4B and 5A for compounds and results) were 3-fold serially diluted 11 times in DMSO from a starting concentration of 4 mM or 40 μM, depending on compound potency. 1 μl of each dilution was transferred into duplicate wells of a white polystyrene 384-well assay plate (Coming #3705). In addition to the compound dilutions, each assay plate contained control wells with 1 μl of DMSO (to define 0% enzyme inhibition) or 1 μl of 200 μM roflumilast (to define 100% enzyme inhibition). Using a Beckman FX robot, 10 μl of [^3H] cAMP (Amersham TRK559) at 2 mCi/ml in assay buffer (50 mM Tris, pH 7.5; 8.3 mM MgCl; 1.7 mM EGTA; 0.01% BSA) was transferred to each assay well. Next, 10 μl of PDE4 enzyme in assay buffer was added and the plates were shaken for 30 s. at 1000 rpm to start the cAMP hydrolysis reaction. The concentrations of enzyme used were: PDE4B, 80 ng/ml; PDE4D, 4 ng/ml; PDE4B2, 2.5 μl of 50% glycerol stock/ml; PDE4D5 0.083 μl of 50% glycerol stock/ml. Assay plates were covered and incubated for 30 min. at 30°. Reactions were stopped by robotic addition of 10 μl of 5 mg/ml SPA beads (Amersham RPNQ0013) in 18 mM ZnSO4. The assay plates were covered with clear plastic film, centrifuged for 1 min. at 1000 RPM to settle the SPA beads, and counted using a Wallac TriLux scintillation counter. IC50's were calculated from the raw assay data by non-linear regression curve fitting using the Assay Explorer software package from MDL.

A further assay has as its target T3, PDE4D (Homo sapiens, UniProt Q08499).
T3 construct: PDE4D: The catalytic domain of human PDE4B from S3 16-V692; His6 (N); thrombin cleavage site (N); made in house; host or cells: E. coli
Nature of the assay: PDE4 IC50 determination by Scintillation Proximity Assay, PDE4D. Summed up:
as §1

Assay [3] addresses T4, full-length human PDE4D5 isozyme (Homo sapiens, UniProt Q08499).
T4 construct: The full-length human PDE4D5 isozyme; His6 (N); TEV cleavage site (N); made in house; host or cells: baculovirus infected insect cells (unpurified lysate)
Description: PDE4 IC50 determination by Scintillation Proximity Assay, PDE4D5. As to conditions: Table 1B, Formula I compounds; read-out: IC50 PDE4D5. The procedure: as §2, §3, §4
PDE4D5: The full-length human PDE4D5 isozyme with an N-terminal His6 tag (SEQ ID NO: 18) and TEV cleavage site expressed in baculovirus infected insect cells. The enzyme was not purified from the cell lysates, so enzyme concentrations were not determined. Enzyme was stored in 50% glycerol at −20°.
as §5

[4] abbreviates: Table 1B, Formula I compounds, read-out: IC50 PDE4B.
The mark [5] stands for this setting: Table 1B, Formula I compounds, read-out: IC50 PDE4B2.
Where [6] appears, read: Table 1B, Formula I compounds, read-out: IC50 PDE4D.
Setting [7] is: second part of Table 2B (2-23 to 2-103), column 3, column is PDE4B in first part, read-out: IC 50 vs. indicated assay h TNFα.
Setting [8] is: second part of Table 2B (2-23 to 2-103), column 4, column is PDE4B2 in first part, read-out: IC 50 vs. indicated assay h TNFα.
[9] abbreviates: second part of Table 2B (2-23 to 2-103), column 5, column is PDE4D in first part, read-out: IC 50 vs. indicated assay h TNFα.

Where two headings read alike, the source gives them in different places. A value given as a limit tells only on which side of the number the result lay.

T2 sequence (Q07343 1-564 isoform Q07343-2): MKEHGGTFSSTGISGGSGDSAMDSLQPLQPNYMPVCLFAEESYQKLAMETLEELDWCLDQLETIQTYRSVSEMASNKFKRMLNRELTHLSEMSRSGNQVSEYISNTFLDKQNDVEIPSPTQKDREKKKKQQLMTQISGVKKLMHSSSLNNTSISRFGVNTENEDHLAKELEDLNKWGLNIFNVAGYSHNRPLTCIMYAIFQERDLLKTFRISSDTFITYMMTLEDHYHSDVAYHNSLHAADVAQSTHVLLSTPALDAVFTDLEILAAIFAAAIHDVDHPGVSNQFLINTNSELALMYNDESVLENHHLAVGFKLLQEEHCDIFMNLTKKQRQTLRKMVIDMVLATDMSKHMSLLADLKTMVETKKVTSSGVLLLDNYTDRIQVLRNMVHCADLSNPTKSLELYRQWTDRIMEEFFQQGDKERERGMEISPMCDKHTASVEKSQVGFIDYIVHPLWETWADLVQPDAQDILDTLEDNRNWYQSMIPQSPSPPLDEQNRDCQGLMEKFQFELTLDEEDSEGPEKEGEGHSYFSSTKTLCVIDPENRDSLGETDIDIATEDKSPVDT
T3 sequence (Q08499 380-756): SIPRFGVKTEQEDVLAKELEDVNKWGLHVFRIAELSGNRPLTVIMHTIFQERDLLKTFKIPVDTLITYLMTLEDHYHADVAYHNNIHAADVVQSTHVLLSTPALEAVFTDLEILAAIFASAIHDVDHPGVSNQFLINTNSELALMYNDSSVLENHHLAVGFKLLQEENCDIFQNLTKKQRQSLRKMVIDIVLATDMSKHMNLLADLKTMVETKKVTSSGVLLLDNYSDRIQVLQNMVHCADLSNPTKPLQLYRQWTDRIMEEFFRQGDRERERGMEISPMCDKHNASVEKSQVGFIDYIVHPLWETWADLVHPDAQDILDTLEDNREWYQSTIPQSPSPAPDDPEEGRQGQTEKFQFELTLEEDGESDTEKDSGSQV
T4 sequence (Q08499 1-745 isoform Q08499-6): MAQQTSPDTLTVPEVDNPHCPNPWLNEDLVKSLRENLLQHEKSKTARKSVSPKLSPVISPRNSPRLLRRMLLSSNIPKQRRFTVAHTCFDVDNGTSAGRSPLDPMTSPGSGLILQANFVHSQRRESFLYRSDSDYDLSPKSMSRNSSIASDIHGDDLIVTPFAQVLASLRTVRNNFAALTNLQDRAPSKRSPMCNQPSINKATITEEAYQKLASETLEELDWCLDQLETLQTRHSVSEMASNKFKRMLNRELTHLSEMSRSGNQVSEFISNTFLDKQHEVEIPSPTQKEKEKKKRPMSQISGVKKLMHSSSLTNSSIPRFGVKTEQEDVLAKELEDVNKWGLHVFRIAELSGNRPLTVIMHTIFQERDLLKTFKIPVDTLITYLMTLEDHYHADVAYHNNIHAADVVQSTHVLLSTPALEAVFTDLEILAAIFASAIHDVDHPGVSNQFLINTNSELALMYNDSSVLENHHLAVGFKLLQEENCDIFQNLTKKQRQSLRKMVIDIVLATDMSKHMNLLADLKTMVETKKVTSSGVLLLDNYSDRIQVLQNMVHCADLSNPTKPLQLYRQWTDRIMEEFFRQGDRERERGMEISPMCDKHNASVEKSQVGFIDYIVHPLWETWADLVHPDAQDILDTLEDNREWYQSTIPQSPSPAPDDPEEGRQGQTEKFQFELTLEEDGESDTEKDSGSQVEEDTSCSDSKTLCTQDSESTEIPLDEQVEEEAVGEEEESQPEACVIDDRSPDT
T1 sequence (Q07343 with tags, fused parts or gaps): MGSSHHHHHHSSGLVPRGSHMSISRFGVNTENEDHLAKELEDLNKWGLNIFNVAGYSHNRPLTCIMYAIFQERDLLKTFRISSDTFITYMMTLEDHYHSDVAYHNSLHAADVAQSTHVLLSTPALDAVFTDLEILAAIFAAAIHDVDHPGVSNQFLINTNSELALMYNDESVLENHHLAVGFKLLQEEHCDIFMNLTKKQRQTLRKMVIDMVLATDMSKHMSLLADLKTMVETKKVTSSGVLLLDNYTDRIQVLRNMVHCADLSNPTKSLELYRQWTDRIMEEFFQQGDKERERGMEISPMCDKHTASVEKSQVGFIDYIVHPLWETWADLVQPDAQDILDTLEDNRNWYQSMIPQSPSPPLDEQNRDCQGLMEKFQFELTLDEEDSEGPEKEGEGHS

Regarding `CCOC(=O)c1c(Nc2ccccc2OC)sc(C(=O)c2ccc(Br)cc2)c1N` [Compound 1-1, 4-Amino-5-(4-bromo-benzoyl)-2-(2-methoxy-phenylamino)-thiophene-3-carboxylic acid ethyl ester], the IC50 (in assay [1] (setting [4]); in assay [2] (setting [5]); at PDE4D (setting [6]); in assay [3]) was less than 10 µM in each case.
As for `COc1ccccc1Nc1sc(C(=O)c2ccc(C)cc2)c(N)c1C#N` [Compound 1-2, 4-Amino-2-(2-methoxy-phenylamino)-5-(4-methyl-benzoyl)-thiophene-3-carbonitrile], the IC50 (in assay [1] (setting [4]); in assay [2] (setting [5]); on PDE4D (setting [6]); in assay [3]) was less than 10 µM throughout.
Turning to `NC(=O)c1c(Nc2ccccc2)sc(C(=O)c2ccccc2)c1N` [Compound 1-12, 4-Amino-5-benzoyl-2-phenylamino-thiophene-3-carboxylic acid amide], the IC50 (in assay [1] (setting [4]); in assay [2] (setting [5]); on PDE4D (setting [6]); in assay [3]) was greater than 10 µM each time.
`N#Cc1c(Nc2ccccc2)sc(C(=O)c2ccccc2)c1N` [Compound 1-16, 4-Amino-5-benzoyl-2-phenylamino-thiophene-3-carbonitrile]: the IC50 in assay [1] (setting [4]) is less than 10 µM; in assay [2] (setting [5]) it was greater than 10 µM; on PDE4D (setting [6]), greater than 10 µM; in assay [3] it was greater than 10 µM.
Take `N#Cc1c(Nc2ccc(Cl)cc2)sc(C(=O)c2sccc2Cl)c1N` [Compound 1-17, 4-Amino-2-(4-chloro-phenylamino)-5-(3-chloro-thiophene-2-carbonyl)-thiophene-3-carbonitrile]: the IC50 (in assay [1] (setting [4]); in assay [2] (setting [5]); on PDE4D (setting [6]); in assay [3]) was less than 10 µM in each case.
Take `N#Cc1c(Nc2ccc(Cl)cc2)sc(C(=O)c2ccc(Cl)cc2Cl)c1N` [Compound 1-18, 4-Amino-2-(4-chloro-phenylamino)-5-(2,4-dichloro-benzoyl)-thiophene-3-carbonitrile]: the IC50 (in assay [1] (setting [4]); in assay [2] (setting [5]); on PDE4D (setting [6]); in assay [3]) was less than 10 µM each time.
For `CCOC(=O)c1c(Nc2ccccc2OC)sc(C(=O)c2ccccc2)c1N` [Compound 1-21, 4-Amino-5-benzoyl-2-(2-methoxy-phenylamino)-thiophene-3-carboxylic acid ethyl ester], the IC50 (in assay [1] (setting [4]); in assay [2] (setting [5]); at PDE4D (setting [6]); in assay [3]) was less than 10 µM in each case.
For the compound `N#Cc1c(Nc2ccc(C(=O)NC3CCOC3=O)cc2)sc(C(=O)c2cc(-c3ccccc3)no2)c1N` (centres unmarked) [Compound 1-142, 4-[4-Amino-3-cyano-5-(3-phenyl-isoxazole-5-carbonyl)-thiophen-2-ylamino]-N-(2-oxo-tetrahydro-furan-3-yl)-benzamide], the IC50 (in assay [1] (setting [4]); in assay [2] (setting [5]); on PDE4D (setting [6])) was less than 10 µM each time.
With `COc1ccc(Nc2sc(C(=O)c3cc(-c4ccc(Cl)cc4Cl)no3)c(N)c2C#N)cc1` [Compound 1-164, 4-Amino-5-[3-(2,4-dichloro-phenyl)-isoxazole-5-carbonyl]-2-(4-methoxy-phenylamino)-thiophene-3-carbonitrile], the results for the IC50 (in assay [1] (setting [4]); at PDE4D (setting [6]); in assay [3]) were less than 10 µM, less than 10 µM and greater than 10 µM, respectively.
In the case of `CC(C)NC(=O)c1cc(C(=O)c2sc(NC3CCCC3)c(C#N)c2N)on1` [Compound 1-189, 5-(3-Amino-4-cyano-5-cyclopentylamino-thiophene-2-carbonyl)-isoxazole-3-carboxylic acid isopropylamide], the IC50 (in assay [1] (setting [4]); at PDE4D (setting [6]); in assay [3]) was less than 10 µM throughout.
On to `N#Cc1c(NC2CCCC2)sc(C(=O)c2cc(C(=O)NC3CC3)no2)c1N` [Compound 1-190, 5-(3-Amino-4-cyano-5-cyclopentylamino-thiophene-2-carbonyl)-isoxazole-3-carboxylic acid cyclopropylamide], for which the IC50 (in assay [1] (setting [4]); at PDE4D (setting [6]); in assay [3]) was less than 10 µM throughout.
In the case of `N#Cc1c(Nc2ccc(Oc3ccccc3)cc2)sc(C(=O)C2CCCC2)c1N` [Compound 1-195, 4-Amino-5-cyclopentanecarbonyl-2-(4-phenoxy-phenylamino)-thiophene-3-carbonitrile], the IC50 in assay [1] (setting [4]) and in assay [3] was less than 10 µM in each case.
In the case of `Nc1c(C(=O)c2cc(-c3ccccc3)no2)sc(NC2CCCC2)c1C(=O)O` [Compound 1-237, 4-Amino-2-cyclopentylamino-5-(3-phenyl-isoxazole-5-carbonyl)-thiophene-3-carboxylic acid], the IC50 in assay [1] (setting [4]), in assay [2] (setting [5]) and in assay [3] was less than 10 µM each time.
As for `Cc1c(Nc2ccccc2)sc(C(=O)c2ccc(Cl)cc2)c1N` [Compound 1-238, (3-Amino-4-methyl-5-phenylamino-thiophen-2-yl)-(4-chloro-phenyl)-methanone], the IC50 in assay [1] (setting [4]), in assay [2] (setting [5]) and in assay [3] was less than 10 µM throughout.
For the compound `Cc1c(Nc2ccc(Oc3ccccc3)cc2)sc(C(=O)c2ccccc2)c1N` [Compound 1-239, [3-Amino-4-methyl-5-(4-phenoxy-phenylamino)-thiophen-2-yl]-phenyl-methanone], the IC50 is less than 10 µM in assay [1] (setting [4]), greater than 10 µM in assay [2] (setting [5]) and greater than 10 µM in assay [3].
With `CCc1c(Nc2ccc(Oc3ccccc3)cc2)sc(C(=O)c2ccccc2)c1N` [Compound 1-243, [3-Amino-5-ethyl-5-(4-phenoxy-phenylamino)-thiophen-2-yl]-phenyl-methanone], the IC50 is less than 10 µM in assay [1] (setting [4]), less than 10 µM in assay [2] (setting [5]) and greater than 10 µM in assay [3].
With `CC(C)C(C)Nc1sc(C(=O)c2cc(-c3ccc(Cl)c(Cl)c3)no2)c(N)c1C#N` (centres unmarked) [Compound 1-246, 4-Amino-5-[3-(3,4-dichloro-phenyl)-isoxazole-5-carbonyl]-2-(1,2-dimethyl-propylamino)-thiophene-3-carbonitrile], the IC50 in assay [1] (setting [4]) is less than 10 µM; on PDE4D (setting [6]), greater than 10 µM; in assay [3], greater than 10 µM.
For the compound `Nc1nc(Nc2c(Cl)cccc2Cl)sc1C(=O)c1ccccc1` [Compound 2-30, [4-Amino-2-(2,6-dichloro-phenylamino)-thiazol-5-yl]-phenyl-methanone], the IC50 (in assay [1] (setting [7]); in assay [2] (setting [8]); at PDE4D (setting [9])) was less than 10 µM each time.
Consider `Nc1nc(Nc2ccc(Oc3ccccc3)cc2)sc1C(=O)c1ccccc1` [Compound 2-67, [4-Amino-2-(4-phenoxy-phenylamino)-thiazol-5-yl]-phenyl-methanone], for which the IC50 in assay [1] (setting [7]) and in assay [2] (setting [8]) was less than 10 µM each time.
Regarding `Nc1nc(Nc2ccc(Cl)cc2)sc1C(=O)C1CCCC1` [Compound 2-92, [4-Amino-2-(4-chloro-phenylamino)-thiazol-5-yl]-cyclopentyl-methanone], the IC50 (in assay [1] (setting [7]); in assay [2] (setting [8]); on PDE4D (setting [9])) was less than 10 µM each time.

The values are drawn from patent US7585859B2, “PDE4B inhibitors and uses therefor” (Plexxikon, Inc., priority 2004, dated 2009).
